Source: publication PMC7180948, “New Insights into 4-Anilinoquinazolines as Inhibitors of Cardiac Troponin I–Interacting Kinase (TNNi3K)” (Molecules, 2020)

Key:
Test in all cases: biochemical
Design in all cases: KINOMEscan competition binding panel (Eurofins DiscoverX), single concentration, % inhibition
Settings in all cases: read-out: 7 at 1 µM % inhibition
EGFR(T790M) = EGFR(T790M) (Homo sapiens, UniProt P00533, T790M)
How it was run: (§1)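 Selectivity profile from a KINOMEscan run against >400 human kinases; test concentration 1 µM.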

ADCK3 = biological target: T1, ADCK3 (Homo sapiens, UniProt Q8NI60)
T1 construct: gene COQ8A
T1 sequence (Q8NI60 whole entry): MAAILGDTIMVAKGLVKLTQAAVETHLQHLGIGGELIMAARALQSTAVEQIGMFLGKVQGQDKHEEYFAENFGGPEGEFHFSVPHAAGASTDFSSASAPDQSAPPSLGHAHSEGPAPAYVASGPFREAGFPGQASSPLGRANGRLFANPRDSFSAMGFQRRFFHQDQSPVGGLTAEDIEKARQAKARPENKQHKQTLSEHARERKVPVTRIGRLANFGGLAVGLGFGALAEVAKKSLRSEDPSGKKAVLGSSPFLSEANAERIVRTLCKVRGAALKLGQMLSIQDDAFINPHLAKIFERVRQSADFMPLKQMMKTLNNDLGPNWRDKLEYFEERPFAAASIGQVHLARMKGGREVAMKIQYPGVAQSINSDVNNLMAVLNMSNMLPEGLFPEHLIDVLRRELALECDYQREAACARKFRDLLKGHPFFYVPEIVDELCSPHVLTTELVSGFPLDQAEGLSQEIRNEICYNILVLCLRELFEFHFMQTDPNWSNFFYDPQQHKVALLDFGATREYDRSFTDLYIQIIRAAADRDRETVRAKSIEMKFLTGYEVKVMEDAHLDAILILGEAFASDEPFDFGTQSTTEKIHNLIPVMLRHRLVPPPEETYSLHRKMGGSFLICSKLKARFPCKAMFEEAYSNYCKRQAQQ
How it was run: as §1

FER = FER (Homo sapiens, UniProt P16591)
How it was run: as §1

CASK = CASK (Homo sapiens, UniProt O14936)
How it was run: as §1

DMPK2 = biological target: T2, DMPK2 (Homo sapiens, UniProt Q6DT37)
T2 construct: gene CDC42BPG
How it was run: as §1

EPHA1 = EPHA1 (Homo sapiens, UniProt P21709)
How it was run: as §1

ULK3 = ULK3 (Homo sapiens, UniProt Q6PHR2)
ULK3, sequence (Q6PHR2 whole entry): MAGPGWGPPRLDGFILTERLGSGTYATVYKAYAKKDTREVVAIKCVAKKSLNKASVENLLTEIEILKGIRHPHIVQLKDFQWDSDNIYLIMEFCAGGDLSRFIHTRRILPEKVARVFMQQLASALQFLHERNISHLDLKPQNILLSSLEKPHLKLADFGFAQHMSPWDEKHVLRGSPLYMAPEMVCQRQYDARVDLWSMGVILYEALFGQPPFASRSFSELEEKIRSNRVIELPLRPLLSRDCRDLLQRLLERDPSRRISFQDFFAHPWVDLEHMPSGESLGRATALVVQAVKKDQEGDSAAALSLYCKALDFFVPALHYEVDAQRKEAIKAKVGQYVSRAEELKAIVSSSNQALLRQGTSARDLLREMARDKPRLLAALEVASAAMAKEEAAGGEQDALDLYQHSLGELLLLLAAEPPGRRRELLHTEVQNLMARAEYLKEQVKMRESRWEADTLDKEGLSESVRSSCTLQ
How it was run: as §1

HIPK1 = HIPK1 (Homo sapiens, UniProt Q86Z02)
How it was run: as §1

DAPK2 = DAPK2 (Homo sapiens, UniProt Q9UIK4)
How it was run: as §1

EPHA5 = EPHA5 (Homo sapiens, UniProt P54756)
How it was run: as §1

BRAF = BRAF (Homo sapiens, UniProt P15056)
BRAF, sequence (P15056 whole entry): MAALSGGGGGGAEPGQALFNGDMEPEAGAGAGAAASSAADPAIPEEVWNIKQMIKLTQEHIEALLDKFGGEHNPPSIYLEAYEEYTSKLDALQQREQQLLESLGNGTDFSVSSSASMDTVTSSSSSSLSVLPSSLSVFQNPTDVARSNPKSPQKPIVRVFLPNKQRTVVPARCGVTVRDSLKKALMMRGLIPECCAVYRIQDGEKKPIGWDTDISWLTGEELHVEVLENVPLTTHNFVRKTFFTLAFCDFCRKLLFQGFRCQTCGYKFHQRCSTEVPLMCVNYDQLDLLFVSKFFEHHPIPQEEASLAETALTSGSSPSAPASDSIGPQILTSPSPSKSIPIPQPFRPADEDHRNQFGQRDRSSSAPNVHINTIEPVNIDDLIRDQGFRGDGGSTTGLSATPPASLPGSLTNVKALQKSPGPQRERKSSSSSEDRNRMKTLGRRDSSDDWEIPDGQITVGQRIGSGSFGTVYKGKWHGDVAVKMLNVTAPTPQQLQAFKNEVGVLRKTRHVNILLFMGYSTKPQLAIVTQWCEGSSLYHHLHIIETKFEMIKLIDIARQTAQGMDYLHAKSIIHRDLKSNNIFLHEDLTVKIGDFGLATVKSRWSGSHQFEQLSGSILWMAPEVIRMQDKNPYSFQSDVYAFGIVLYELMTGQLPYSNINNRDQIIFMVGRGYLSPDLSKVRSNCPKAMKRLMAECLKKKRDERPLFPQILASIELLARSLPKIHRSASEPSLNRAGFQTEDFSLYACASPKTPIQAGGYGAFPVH
How it was run: as §1

MKK7 = biological target: T3, MKK7 (Homo sapiens, UniProt O14733)
T3 construct: gene MAP2K7
How it was run: as §1

PLK2 = PLK2 (Homo sapiens, UniProt Q9NYY3)
How it was run: as §1

PIK3CA(E545A) = PIK3CA(E545A) (Homo sapiens, UniProt P42336, E545A)
How it was run: as §1

ULK2 = ULK2 (Homo sapiens, UniProt Q8IYT8)
How it was run: as §1

ERK4 = biological target: T4, ERK4 (Homo sapiens, UniProt P31152)
T4 construct: gene MAPK4
T4 sequence (P31152 whole entry): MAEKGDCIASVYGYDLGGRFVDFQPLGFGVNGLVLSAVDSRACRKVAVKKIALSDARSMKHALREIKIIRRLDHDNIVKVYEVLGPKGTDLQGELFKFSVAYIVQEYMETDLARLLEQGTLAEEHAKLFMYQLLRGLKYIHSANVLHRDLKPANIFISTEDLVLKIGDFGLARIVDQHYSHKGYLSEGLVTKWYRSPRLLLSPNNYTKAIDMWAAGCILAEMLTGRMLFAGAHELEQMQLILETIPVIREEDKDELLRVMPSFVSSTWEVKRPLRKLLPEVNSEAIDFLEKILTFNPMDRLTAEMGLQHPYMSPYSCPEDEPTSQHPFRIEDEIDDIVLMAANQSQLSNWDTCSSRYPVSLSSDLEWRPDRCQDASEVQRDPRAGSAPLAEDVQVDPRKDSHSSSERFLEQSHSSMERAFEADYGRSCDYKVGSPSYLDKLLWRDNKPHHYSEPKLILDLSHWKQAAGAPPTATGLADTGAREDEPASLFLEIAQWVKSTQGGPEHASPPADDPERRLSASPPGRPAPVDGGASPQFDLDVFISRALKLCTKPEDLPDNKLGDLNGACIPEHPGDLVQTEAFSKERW
How it was run: as §1

SRPK2 = SRPK2 (Homo sapiens, UniProt P78362)
How it was run: as §1

PRKCI = PRKCI (Homo sapiens, UniProt P41743)
PRKCI, sequence (P41743 whole entry): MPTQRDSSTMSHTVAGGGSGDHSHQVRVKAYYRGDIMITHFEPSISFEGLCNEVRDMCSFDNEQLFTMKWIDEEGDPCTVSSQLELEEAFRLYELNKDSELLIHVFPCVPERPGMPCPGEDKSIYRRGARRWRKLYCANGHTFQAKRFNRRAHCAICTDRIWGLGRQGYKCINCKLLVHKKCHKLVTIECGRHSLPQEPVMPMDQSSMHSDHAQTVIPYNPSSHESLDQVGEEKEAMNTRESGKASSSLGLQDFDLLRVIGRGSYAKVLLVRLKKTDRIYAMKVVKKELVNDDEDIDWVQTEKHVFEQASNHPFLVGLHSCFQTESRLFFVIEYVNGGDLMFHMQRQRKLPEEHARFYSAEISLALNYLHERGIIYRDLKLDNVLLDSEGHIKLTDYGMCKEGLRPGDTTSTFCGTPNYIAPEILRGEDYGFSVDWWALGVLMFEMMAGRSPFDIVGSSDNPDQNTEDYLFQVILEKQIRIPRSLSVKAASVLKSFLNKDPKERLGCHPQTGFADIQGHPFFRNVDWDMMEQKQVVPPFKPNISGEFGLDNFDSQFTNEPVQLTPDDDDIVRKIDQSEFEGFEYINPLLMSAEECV
How it was run: as §1

CDC2L2 = biological target: T5, CDC2L2 (Homo sapiens, UniProt Q9UQ88)
T5 construct: gene CDK11A
T5 sequence (Q9UQ88 whole entry): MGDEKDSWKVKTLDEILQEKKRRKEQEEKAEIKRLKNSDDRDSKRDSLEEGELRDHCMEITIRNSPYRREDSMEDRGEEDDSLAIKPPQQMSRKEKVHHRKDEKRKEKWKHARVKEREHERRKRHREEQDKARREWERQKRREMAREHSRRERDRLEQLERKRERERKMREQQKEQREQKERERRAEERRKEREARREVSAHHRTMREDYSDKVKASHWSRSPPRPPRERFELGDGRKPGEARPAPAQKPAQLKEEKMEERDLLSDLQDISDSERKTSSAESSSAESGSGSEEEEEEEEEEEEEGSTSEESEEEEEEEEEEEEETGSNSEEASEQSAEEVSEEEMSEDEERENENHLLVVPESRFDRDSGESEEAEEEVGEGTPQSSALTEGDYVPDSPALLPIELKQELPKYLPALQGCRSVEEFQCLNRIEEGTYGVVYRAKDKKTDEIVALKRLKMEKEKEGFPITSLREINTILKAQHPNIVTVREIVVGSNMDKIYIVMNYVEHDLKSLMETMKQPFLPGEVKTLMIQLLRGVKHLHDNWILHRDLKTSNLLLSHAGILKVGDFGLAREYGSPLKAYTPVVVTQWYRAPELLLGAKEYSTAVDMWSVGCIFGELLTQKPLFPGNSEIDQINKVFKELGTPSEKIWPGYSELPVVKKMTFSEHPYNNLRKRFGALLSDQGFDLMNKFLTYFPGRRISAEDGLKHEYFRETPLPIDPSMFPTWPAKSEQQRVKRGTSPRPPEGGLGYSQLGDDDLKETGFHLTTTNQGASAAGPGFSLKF
How it was run: as §1

[1] = biological target: T6, ABL1(T315I)-phosphorylated (Homo sapiens, UniProt P00519, T315I)
T6 construct: phosphorylated
How it was run: as §1

IKK-epsilon = biological target: T7, IKK-epsilon (Homo sapiens, UniProt Q14164)
T7 construct: gene IKBKE
How it was run: as §1

AMPK-alpha2 = biological target: T8, AMPK-alpha2 (Homo sapiens, UniProt P54646)
T8 construct: gene PRKAA2
How it was run: as §1

EGFR(S752-I759del) = EGFR(S752-I759del) (Homo sapiens, UniProt P00533, DEL752-759)
How it was run: as §1

[2] = biological target: T9, RSK4(Kin.Dom.1-N-terminal) (Homo sapiens, UniProt Q9UK32)
T9 construct: gene RPS6KA6; Kin.Dom.1-N-terminal
How it was run: as §1

EGFR(T790M), sequence (P00533 whole entry T790M): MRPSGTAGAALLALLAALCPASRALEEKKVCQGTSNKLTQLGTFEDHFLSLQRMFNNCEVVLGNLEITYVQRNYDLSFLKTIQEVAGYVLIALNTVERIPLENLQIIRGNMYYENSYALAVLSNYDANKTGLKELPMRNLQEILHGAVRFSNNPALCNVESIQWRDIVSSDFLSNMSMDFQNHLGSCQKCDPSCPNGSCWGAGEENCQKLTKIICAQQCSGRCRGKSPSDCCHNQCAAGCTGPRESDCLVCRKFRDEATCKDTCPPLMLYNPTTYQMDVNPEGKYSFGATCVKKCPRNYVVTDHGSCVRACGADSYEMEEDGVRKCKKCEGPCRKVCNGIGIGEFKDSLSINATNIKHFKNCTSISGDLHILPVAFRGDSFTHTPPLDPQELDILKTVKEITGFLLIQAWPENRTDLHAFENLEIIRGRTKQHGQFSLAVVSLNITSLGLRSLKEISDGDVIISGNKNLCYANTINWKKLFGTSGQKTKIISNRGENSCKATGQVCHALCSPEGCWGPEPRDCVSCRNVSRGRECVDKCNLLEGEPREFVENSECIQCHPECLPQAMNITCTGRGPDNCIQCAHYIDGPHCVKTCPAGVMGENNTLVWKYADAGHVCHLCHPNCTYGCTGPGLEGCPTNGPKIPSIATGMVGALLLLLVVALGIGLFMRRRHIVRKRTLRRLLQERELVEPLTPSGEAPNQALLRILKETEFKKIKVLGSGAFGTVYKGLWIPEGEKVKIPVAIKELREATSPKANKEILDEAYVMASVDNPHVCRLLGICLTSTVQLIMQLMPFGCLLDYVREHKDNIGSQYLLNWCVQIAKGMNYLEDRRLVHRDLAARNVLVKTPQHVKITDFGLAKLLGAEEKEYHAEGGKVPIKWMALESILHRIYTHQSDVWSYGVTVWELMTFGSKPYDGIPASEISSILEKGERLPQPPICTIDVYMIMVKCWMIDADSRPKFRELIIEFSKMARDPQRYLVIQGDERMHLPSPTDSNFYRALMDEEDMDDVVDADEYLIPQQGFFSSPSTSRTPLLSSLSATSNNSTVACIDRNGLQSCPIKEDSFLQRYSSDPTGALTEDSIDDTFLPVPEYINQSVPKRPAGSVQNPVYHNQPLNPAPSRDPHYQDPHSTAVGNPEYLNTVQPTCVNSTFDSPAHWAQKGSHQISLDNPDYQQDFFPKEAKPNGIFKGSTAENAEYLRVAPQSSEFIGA

For `CNS(=O)(=O)c1ccc(N(C)C)c(Nc2ncnc3cc(OC)c(OC)cc23)c1` [compound 7, 3-((6,7-dimethoxyquinazolin-4-yl)amino)-4-(dimethylamino)-N-methylbenzenesulfonamide], the inhibition at 1 µM (EGFR(T790M)) was 25%, the inhibition at 1 µM (ADCK3) was 50% and the inhibition at 1 µM (FER) was 0%. It also gave an inhibition at 1 µM (CASK) of 0%, an inhibition at 1 µM (DMPK2) of 0% and an inhibition at 1 µM (EPHA1) of 0%. For the same molecule, the inhibition at 1 µM (ULK3) was 29%, the inhibition at 1 µM (HIPK1) was 5% and the inhibition at 1 µM (DAPK2) was 0%. For the same molecule, the inhibition at 1 µM (EPHA5) was 0%, the inhibition at 1 µM (BRAF) was 84% and the inhibition at 1 µM (MKK7) was 42%. It also gave an inhibition at 1 µM (PLK2) of 13%, an inhibition at 1 µM (PIK3CA(E545A)) of 0% and an inhibition at 1 µM (ULK2) of 19%. It also gave an inhibition at 1 µM (ERK4) of 0%, an inhibition at 1 µM (SRPK2) of 15% and an inhibition at 1 µM (PRKCI) of 5%. It also gave an inhibition at 1 µM (CDC2L2) of 0%, an inhibition at 1 µM [1] of 0% and an inhibition at 1 µM (IKK-epsilon) of 18%. For the same molecule, the inhibition at 1 µM (AMPK-alpha2) was 12%, the inhibition at 1 µM (EGFR(S752-I759del)) was 29% and the inhibition at 1 µM [2] was 34%.
